Source: patent US20150202212A1, “METHODS FOR IDENTIFYING AGENTS FOR TREATING SMOOTH MUSCLE DISORDERS AND COMPOSITIONS THEREOF” (University of Massachusetts Medical School, priority 2012, published 2015)
“Also recorded” adds a separate entry of the source. Like-named read-outs stand apart in the source and are kept apart here.

Tests used:
[1] = test system: isolated mouse airway smooth muscle cells; assay: Measurement of global [Ca2+]i (fluo-3) in freshly isolated mouse airway smooth muscle cells; assay type: cell-based; settings: for effect on chloroquine-induced reversal of the KCl-induced increase in [Ca2+]i: PTX 1 μg/ml 6-8 hours, gallein 20 μM, Anti-βγ 1 μM, U73122, 2-ABP at concentrations of FIG. 5; for chloroquine-induced increase in global [Ca2+]i, % of control: resting cells, PTX 1 μg/ml 6-8 hr, gallein 20 μM 30 min, Anti-βγ 1 μM 1 hr, U73122 3 μM, 2-APB 50 μM; for effect on chloroquine's reduction of the Mch-induced [Ca2+]i increase: 10 μM FPL, single cell level
Protocol: (§1) The tracheas and bronchi were dissected free from the surface of the connective tissue. The tissue was incubated in the dissociation medium containing papain 30 unit/ml, 1 mM DTT, and 0.5 mg/ml BSA, at 35° C. for 30 min, and then transferred to a dissociation medium containing 3 unit/ml collagenase F and 0.5 mg/mL BSA, and incubated at 35° C. for another 15 min to produce isolated ASM cells. Finally, the tissue was agitated with a fire polished wide-bore glass pipette to release the cells.
Fluorescence images using fluo-3 as a calcium indicator were obtained using a custom-built wide-field digital imaging system. The camera was interfaced to a custom made inverted microscope, and the cells were imaged using either a 20× Nikon 1.3 NA for global [Ca^2+] measurement or a 60× Nikon 1.4 NA oil for Ca^2+ spark measurement. […] The images were acquired at the speed of either 1 Hz for global [Ca^2+] measurement or 50 Hz for Ca^2+ spark measurement. Subsequent image processing and analysis was performed off line using a custom-designed software package, running on a Linux/PC workstation. [Ca^2+]i was represented as ΔF/F0*100 with F calculated by integrating fluo-3 over entire cells for global [Ca^2+], or just the value at the brightest pixel (i.e., epicenter pixel) for Ca^2+ sparks.
All chemicals, except fluo-3 (Invitrogen Co, San Diego, Calif., USA), gallein (Tocris Bioscience, Bristol, United Kingdom), and Anti-βγ blocking peptide (AnaSpec, Fremont, Calif., USA), were purchased from Sigma-Aldrich Co. (St. Louis, Mo., USA). For single cell studies, agonists and antagonists were applied locally to cells via a picospritzer at a constant pressure, so that the duration of its action and concentration could be controlled easily.

[2] = test system: mouse internal anal sphincter; assay: Spontaneous tone of mouse internal anal sphincter; settings: for relaxation of smooth muscle from internal anal sphincter: mouse
From the text: The spontaneous tone contributes about 70% of the basal tonus that maintains fecal continence in human and animals.

mouse urethra = assay: Mouse urethral contraction induced by contractile agonists; settings: for relaxation of smooth muscle from urethra: mouse
From the text: […] were pretreated with bitter tastants, and then stimulated with contractile agonists. Contractile agonists alone were used as the control.

[3] = test system: mouse airways (trachea and bronchi rings); assay: Mouse airway smooth muscle contraction bioassay (isometric tension); settings: for relaxation of smooth muscle from airways: mouse; for reversal (relaxation) of KCl-induced tension: 60 mM KCl, chloroquine, denatonium 1 mM
From the text: C57/BL6 mice at 7-12 weeks of age were sacrificed and the entire respiratory trees were rapidly removed and immersed in Krebs physiologic solution containing (in mM) 118.07 NaCl, 4.69 KCl, 2.52 CaCl2, 1.16 MgSO4, 1.01 NaH2PO4, 25 NaHCO3, and 11.10 glucose. Trachea and bronchi were isolated and cut into rings (4 mm in length). The rings were mounted on a wire myograph chamber (Danish Myo Technology, Aarhus, Denmark), and a PowerLab recording device (AD Instruments) was used to record isometric tension. The ring preparations with zero tension were immersed in 5 ml of Krebs physiologic solution, bubbled with 95% 02 and 5% CO2 at 37° C. The basal tones were set at the level of approximately 2 mN.

[4] = test system: human intrapulmonary bronchi; assay: Force measurement in human intrapulmonary airways; settings: for relaxation of smooth muscle from airways: human; for reversal (relaxation) of KCl-induced tension: KCl (60 mM), chloroquine, denatonium 1 mM
From the text: Trachea and bronchi were isolated and cut into rings (4 mm in length). The rings were mounted on a wire myograph chamber (Danish Myo Technology, Aarhus, Denmark), and a PowerLab recording device (AD Instruments) was used to record isometric tension. […] Human lung tissue was obtained (with informed consent) from patients undergoing surgery (lobectomy) for lung cancer at the Department of Surgery and the Department of Pathology at the Univ. of Massachusetts Memorial Med Ctr (Worcester, Mass.). The tumors were identified as nonsmall cell carcinoma (adenocarcinoma, squamous cell carcinoma). Intrapulmonary airways were dissected out and cleaned free of the connective tissues. These airways were either cut into the rings ([…]) for force measurements the same as for mouse airway tissues, or digested with the same enzymes, dissociation medium and isolation procedure as for single mouse ASM cells. The experimental protocols on human tissues were approved by the Committee for Protection of Human Subjects in Research at the University of Massachusetts Medical School (Protocol 13590 to R.Z).

human pulmonary arteries = assay: Relaxation of human pulmonary arteries pre-contracted by KCl; settings: for relaxation of smooth muscle from pulmonary artery: human; for relaxation of human pulmonary arteries: pre-contracted by KCl
From the text: Human specimen were provided by Univ. Mass. Memorial Medical Center.

[5] = test system: pulmonary artery from mouse; assay: Relaxation of smooth muscle from mouse pulmonary artery
[6] = test system: isolated smooth muscle cells from mouse internal anal sphincter; assay: [Ca2+]i in isolated smooth muscle cells from mouse internal anal sphincter; assay type: cell-based; settings: CDCA 100 μM; chloroquine 1 mM; denatonium 1 mM
From the text: Fluorescence images using fluo-3 as a calcium indicator were obtained using a custom-built wide-field digital imaging system. The camera was interfaced to a custom made inverted microscope, and the cells were imaged using either a 20× Nikon 1.3 NA for global [Ca^2+] measurement or a 60× Nikon 1.4 NA oil for Ca^2+ spark measurement. The 488 nm line of an Argon Ion laser provided fluorescence excitation, with a shutter to control exposure duration, and emission of the Ca^2+ indicator was monitored at wavelengths >500 nm. The images were acquired at the speed of either 1 Hz for global [Ca^2+] measurement or 50 Hz for Ca^2+ spark measurement. Subsequent image processing and analysis was performed off line using a custom-designed software package, running on a Linux/PC workstation. [Ca^2+]i was represented as ΔF/F0*100 with F calculated by integrating fluo-3 over entire cells for global [Ca^2+], or just the value at the brightest pixel (i.e., epicenter pixel) for Ca^2+ sparks.

Mouse ASM cells = assay: Measurement of cell shortening in mouse ASM cells; assay type: cell-based; settings: Mch 100 μM; n=21
Protocol: as §1, with “the cells. Myocytes were placed into a recording chamber superfused with the bath solution for patch clamp experiments at room temperature. Cells loaded with Fluo-3 were imaged using a custom-built wide-field digital imaging system and their lengths were determined using custom software to manually trace down the center of the cell.” for “the cells.”

mouse airway strips = settings: all at 1 mM; [Ca2+]i clamped; α-toxin permeabilized
[7] = pretreatment, Chloro 1 mM, CDCA 100 μM

NCCOB(c1ccccc1)c1ccccc1 [2-APB, 2-Aminoethoxydiphenyl borate]
effect on chloroquine-induced reversal of the KCl-induced increase in [Ca2+]i [1]: failed to alter | chloroquine-induced increase in global [Ca2+]i, % of control [1]: −10.5±7.3%

C[C@H](CCC(=O)O)[C@H]1CC[C@H]2[C@@H]3[C@H](O)C[C@@H]4C[C@H](O)CC[C@]4(C)[C@H]3CC[C@]12C [CDCA, chenodeoxycholic acid]
effect on spontaneous tone [2]: reversed totally | relaxation of smooth muscle from internal anal sphincter [2]: fully relax | relaxation of smooth muscle from urethra (mouse urethra): fully relax | effect on 10 μM methacholine-induced contraction (mouse urethra; pretreatment, CDCA 100 μM): inhibited | effect on 60 mM KCl-induced contraction (mouse urethra; [7]): blocked | effect on alpha1-agonist phenylephrine-induced contraction (mouse urethra; [7]): inhibited | relaxation of smooth muscle from airways [3]: fully relax | relaxation of smooth muscle from airways [4]: fully relax | relaxation of smooth muscle from pulmonary artery (human pulmonary arteries): fully relax | relaxation of smooth muscle from pulmonary artery [5]: fully relax | effect on the increase in [Ca2+]i induced by 60 mM KCl [6]: reversibly inhibited

C[C@H](CCC(=O)O)[C@H]1CC[C@H]2[C@@H]3CC[C@@H]4C[C@H](O)CC[C@]4(C)[C@H]3C[C@H](O)[C@]12C [DCA, deoxycholic acid]
relaxation of smooth muscle from internal anal sphincter [2]: fully relax | relaxation of smooth muscle from urethra (mouse urethra): fully relax | relaxation of smooth muscle from airways [3]: fully relax | relaxation of smooth muscle from airways [4]: fully relax | reversal (relaxation) of KCl-induced tension ([4]; human airways): fully relaxed | relaxation of smooth muscle from pulmonary artery (human pulmonary arteries): fully relax | relaxation of human pulmonary arteries (human pulmonary arteries): markedly relaxed | relaxation of smooth muscle from pulmonary artery [5]: fully relax

COC(=O)c1c(C)[nH]c(C)c1C(=O)c1ccccc1Cc1ccccc1 [FPL, FPL 64176]
effect on chloroquine-induced relaxation in ASM pre-contracted by KCl ([3]; KCl 60 mM): dose-dependently reversed; also recorded: dose-dependently inhibited | effect on chloroquine-induced relaxation of Mch precontracted airways ([3]; tissue level): prevent chloroquine from relaxing; also recorded: dose-dependently reversed | effect on chloroquine's reduction of [Ca2+]i in cells stimulated by KCl [1]: prevented | effect on chloroquine's reduction of the Mch-induced [Ca2+]i increase [1]: prevent chloroquine from reducing | effect on chloroquine's reduction of the Mch-induced [Ca2+]i increase ([1]; listed as FPL 64176): prevented chloro from reversing | effect on chloroquine's reduction of [Ca2+]i in cells stimulated by KCl ([1]; listed as FPL 64176): inhibited

[Cl-].[K+] [KCl]
KCl-induced increase in ΔF/F0 ([1]; KCl 60 mM, without diltiazem, n=9): 122±19%

CC(=O)OC(C)C[N+](C)(C)C (stereo not shown) [Mch, methacholine]
cell shortening (Mouse ASM cells): 49±8% | contraction (tension) of mouse airways at rest ([3]; 1 mM chloro, 100 μM Mch): robust contraction | tension generated in Ca2+ free medium, % of that in the presence of extracellular Ca2+ ([3]; Ca2+ free medium): less than 20% | contraction (force) of mouse airways at rest ([3]; chloroquine 10 μM-1 mM, Mch 0.1-10 μM): induced contraction markedly | increase in fluo-3 fluorescence (ΔF/F0) ([1]; Mch 100 μM): 162±26%

COc1ccc2c(c1)CC[C@@H]1[C@@H]2CC[C@]2(C)[C@@H](NCCCCCCN3C(=O)C=CC3=O)CC[C@@H]12 [U73122]
effect on chloroquine-induced reversal of the KCl-induced increase in [Ca2+]i [1]: failed to alter | chloroquine-induced increase in global [Ca2+]i, % of control [1]: 18.0±5.5%

CC[N+](CC)(CC(=O)Nc1c(C)cccc1C)Cc1ccccc1 [denatonium]
effect on spontaneous tone [2]: enhanced | reversal (relaxation) of KCl-induced tension ([3]; mouse airways): fully reversed; also recorded: relaxed | reversal (relaxation) of KCl-induced tension ([4]; human airways): fully reversed | relaxation of human pulmonary arteries (human pulmonary arteries): failed to exert any effect | effect on the increase in [Ca2+]i induced by 60 mM KCl [6]: did not affect | relaxation of ASM at fixed [Ca2+]i (mouse airway strips): failed to relax

COc1ccc([C@@H]2Sc3ccccc3N(CCN(C)C)C(=O)[C@@H]2OC(C)=O)cc1 [diltiazem]
reversal of the KCl-induced contraction ([3]; KCl 60 mM, n=6): 93.1±4.8% | reversal of Mch-induced airway force generation ([3]; mouse airways): dose-dependently reversed | reversal (relaxation) of KCl-induced tension ([3]; mouse airways): relaxed | reversal of Mch-induced airway force generation ([4]; human airways, 10 μM Mch): dose-dependently reversed | reversal (relaxation) of KCl-induced tension ([4]; human airways): relaxed | KCl-induced increase in ΔF/F0 after diltiazem pretreatment ([1]; 10 μM diltiazem pretreatment, KCl 60 mM, n=9): 16.8±10% | effect on KCl (60 mM)-induced increase in [Ca2+]i ([1]; prior application of diltiazem 100 μM): blocked | reversal of the Mch-induced increase in [Ca2+] ([1]; single isolated mouse ASM cells, n=12): 90.2±2.9%

O=C1OC2(c3ccccc31)c1ccc(O)c(O)c1Oc1c2ccc(O)c1O [gallein]
effect on chloroquine-induced reversal of the KCl-induced increase in [Ca2+]i [1]: prevented | chloroquine-induced increase in global [Ca2+]i, % of control [1]: 19.9±8.5%

MPS-phosducin-like protein C terminus [Anti-βγ]
effect on chloroquine-induced reversal of the KCl-induced increase in [Ca2+]i [1]: prevented | chloroquine-induced increase in global [Ca2+]i, % of control [1]: 18.4±4.8%

pertussis toxin [PTX]
effect on chloroquine-induced reversal of the KCl-induced increase in [Ca2+]i [1]: prevented | chloroquine-induced increase in global [Ca2+]i, % of control [1]: 21.1±8.6%
